According to US12325862B2, “Compositions and methods for transgenic crops resistant to thaxtomins” (University of Florida Research Foundation, Inc., priority 2019, dated 2025):

B1: NfsB: nitroreductase from Haemophilus influenzae (SEQ ID NO: 4), recombinant with C-terminal His6 tag (protein, listed as Haemophilus influenzae)
chain: MTQLTREQVLELFHQRSSTRYYDPTKKISDEDFECILECGRLSPSSVGSEPWKFLVIQNKTLREKMKPFSWGMINQLDNCSHLVVILAKKNARYDSPFFVDVMARKGLNAEQQQAALTKYKALQEEDMKLLENDRTLFDWCSKQTYIALANMLTGASALGIDSCPIEGFHYDKMNECLAEEGLFDPQEYAVSVAATFGYRSRDIAKKSRKGLDEVVKWVG
modifications: C-terminal His6 tag

Key:
[1] = tested on: radish seedlings; assay: Radish seedling assay; type: in vivo; details: for growth of radish seedlings on agar plate: after seven days, compared with negative control DMSO
Description: Serial concentrations of thaxtomins in DMSO were added into 20 mL of 1.5% warm agar solution with gentle agitation to the final concentrations range from 0 to 2 μM. DMSO was included as a negative control. The solution was then poured into the plate for solidification at room temperature for 30 min. Radish seeds (W. Atlee Burpee & Co., Warminster Township, Pennsylvania) were surface disinfested, pregerminated, and selected when the radicle was […] and just emerged from the seed coat. Six radish seedlings were equally located on the surface of each plate with the root ends all pointed in the same direction. Agar plates were covered and sealed with Parafilm®. The seedlings in the agar plates grew at room temperature under fluorescent lighting (12 h per day for 7 days), and then the seedling with average size of all seedlings in the same plate was selected for comparison.
A radish seedling assay was carried out to investigate the herbicidal activity of serial concentrations of 4-amino thaxtomin A (compound 5). The assay also included DMSO as negative control and thaxtomin A (1) as positive control. […] The diminished herbicidal activity is caused by the transformation of the nitro group of thaxtomin A (1) into the amine group.

[2] = NfsB enzymatic reaction, conditions optimized with thaxtomin A as substrate; type: biochemical
Description: Enzymatic reaction conditions were optimized with thaxtomin A as substrate. […] When coupled with a glucose dehydrogenase (GDH)- or phosphite dehydrogenase (PTDH)-based NADPH regeneration system, the enzyme at 10 μM achieved greater than 90% conversion of thaxtomin A (2 mM) at 37° C. in 8 hours. […] In addition, a crude extract of engineered thaxtomin producing strain Streptomyces albus-thx2 was prepared; the extract contained about 69% thaxtomin A based on HPLC analysis.

Row | Molecule | growth of radish seedlings on agar plate ([1]; 0.05 μM) | growth of radish seedlings on agar plate ([1]; 2.0 μM) | herbicidal activity to radish seedlings ([1]; overall conclusion, 0.05 μM and 2.0 μM) | conversion of thaxtomin A (1) in crude extract into compound 5 ([2]; crude extract of Streptomyces albus-thx2, about 69% thaxtomin A) | conversion of thaxtomin A ([2]; enzyme 10 μM, thaxtomin A 2 mM, 37° C., 8 hours, GDH- or PTDH-based NADPH regeneration system) | temperature of highest enzyme activity ([2]; thaxtomin A as substrate)
1 | CN1C(=O)[C@](O)(Cc2cccc(O)c2)N(C)C(=O)[C@@H]1Cc1c[nH]c2cccc(N)c12 [compound 5, 4-amino thaxtomin A] | the same as the negative control DMSO | the same as the negative control DMSO | minimal to no herbicidal activity | – | – | –
2 | CN1C(=O)[C@](O)(Cc2cccc(O)c2)N(C)C(=O)[C@@H]1Cc1c[nH]c2cccc([N+](=O)[O-])c12 [thaxtomin A, reference compound] | – | significantly inhibited | – | – | – | –
3 | B1 | – | – | – | completely converted | greater than 90% | 37 °C
